In US20260137706A1, “METHODS OF TREATING INFLAMMATORY DISEASES” (INTERLINE THERAPEUTICS, INC., priority 2023, published 2026):
pIC50: −log10 of the molar value.

Experiments:
[1] = biological target: T1, binding of His-XIAP(BIR2)-avi fusion protein to GST-RIPK2 fusion protein (RIPK2/XIAP) (Homo sapiens, UniProt O43353); experiment: RIPK2-XIAP binding competition PPI assay (TR-FRET); conditions: RIPK2/XIAP binding competition PPI assay; for Emax: Amax, read-out: PPI Amax bin; for pIC50: read-out: PPI IC50 bin
T1 construct: made in house; host or cells: baculovirus infected Sf9 cells
T1 sequence (O43353 1-310 limits assumed): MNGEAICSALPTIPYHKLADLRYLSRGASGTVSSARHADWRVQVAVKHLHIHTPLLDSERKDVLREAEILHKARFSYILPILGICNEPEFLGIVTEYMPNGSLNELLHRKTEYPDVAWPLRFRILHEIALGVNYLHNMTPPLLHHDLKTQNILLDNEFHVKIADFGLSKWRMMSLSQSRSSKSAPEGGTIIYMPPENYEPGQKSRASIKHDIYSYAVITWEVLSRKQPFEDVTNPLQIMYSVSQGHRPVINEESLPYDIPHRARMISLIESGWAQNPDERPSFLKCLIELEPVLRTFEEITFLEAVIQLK
Summary of the method: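 Compounds (in DMSO, 100-fold stock) incubated 120 min at 23 °C with 1 nM GST-RIPK2 (aa 1-310) and 25 nM His-XIAP(BIR2 aa 152-231)-avi, plus anti-His-XL665 and anti-GST-Tb, in pH 7.5 Tris buffer. Read-out: 665/520 nm emission ratio. Normalized to no-inhibitor (0%) and 50 nM GSK583 (−100%); Amax binned A–D.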

[2] = biological target: T2, GST-RIPK2 fusion protein (human RIPK2, amino acids 1-310) (Homo sapiens, UniProt O43353); experiment: RIPK2 binding competition assay (TR-FRET, Tracer 199 displacement); conditions: 10 nM Tracer 199, 1 nM GST-RIPK2, read-out: RIPK2 IC50
T2 construct: made in house; host or cells: baculovirus infected Sf9 cells
T2 sequence (O43353 1-310): as the sequence (O43353 1-310 limits assumed) above
Summary of the method: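 IC50 derived from the TR-FRET emission ratio (665/620 nm, 337 nm excitation), normalized with no-inhibitor and no-enzyme controls. Incubation 45 min at 22 °C, pH 7.5 Tris buffer, with final 10 nM tracer, 1 nM Sf9-expressed GST-RIPK2 fragment (aa 1-310) and 0.5 nM Tb-labelled anti-GST.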

[3] = system: NF-κB pathway (SEAP) in THP1-Dual cells; experiment: THP-1 Dual cell SEAP assay (L18-MDP stimulated); format: cell-based; conditions: Homo sapiens, THP1-Dual, read-out: NF-κB THP1 IC50 bin
Summary of the method: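 IC50 values derive from non-linear regression of % inhibition, calculated against DMSO/L18-MDP-treated wells after media-only subtraction. NF-κB SEAP activity was read at OD 620-655 nm (QUANTI-Blue, 2 h, 37 °C) from supernatants of THP1-Dual cells. Cells had been compound-treated 30 min before overnight (20-24 h) stimulation with 10 ng/mL final L18-MDP.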

Row | SMILES | Emax [1] | pIC50 [1] | pIC50 [2] | pIC50 [3]
1 | C[C@@H](O)COc1cc2ncc(-c3cc4cc[nH]c4nc3F)n2cc1S(=O)(=O)C(C)(C)C [Example 251, (R)-1-((6-(tert-butylsulfonyl)-3-(6-fluoro-1H-pyrrolo[2,3-b]pyridin-5-yl)imidazo[1,2-a]pyridin-7-yl)oxy)propan-2-ol] | > 80% | > 9.00 | > 9.00 | > 7.30
2 | CCS(=O)(=O)Nc1cc(-c2cnc3cc(OC[C@@H](C)O)c(S(=O)(=O)C(C)(C)C)cn23)cc(F)c1OC [Example 252, (R)-N-(5-(6-(tert-butylsulfonyl)-7-(2-hydroxypropoxy)imidazo[1,2-a]pyridin-3-yl)-3-fluoro-2-methoxyphenyl) ethanesulfonamide] | > 80% | > 9.00 | > 9.00 | > 7.30
3 | COc1c(F)cc(-c2cnc3cc(OC[C@@H](C)O)c(S(=O)(=O)C(C)(C)C)cn23)cc1NS(=O)(=O)c1cnn(C)c1 [Example 253, (R)-N-(5-(6-(tert-butylsulfonyl)-7-(2-hydroxypropoxy)imidazo [1,2-a]pyridin-3-yl)-3-fluoro-2-methoxyphenyl)-1-methyl-1H-pyrazole-4-sulfonamide] | > 80% | > 9.00 | 8.60 to 9.00 | > 7.30
4 | C[C@@H](O)COc1cn2ncc(-c3cc(Cl)c(N)nc3F)c2cc1S(=O)(=O)C(C)(C)C [Example 254, (R)-1-((3-(6-amino-5-chloro-2-fluoropyridin-3-yl)-5-(tert-butylsulfonyl)pyrazolo [1,5-a]pyridin-6-yl)oxy)propan-2-ol] | > 80% | 8.60 to 9.00 | 8.60 to 9.00 | 6.60 to 7.30
5 | COc1c(F)cc(-c2cnc3cc(OC[C@@H](C)O)c(S(=O)(=O)C(C)(C)C)cn23)cc1NS(C)(=O)=O [Example 255, (R)-N-(5-(6-(tert-butylsulfonyl)-7-(2-hydroxypropoxy)imidazo [1,2-a]pyridin-3-yl)-3-fluoro-2-methoxyphenyl) methanesulfonamide] | 55 to 80% | > 9.00 | 8.60 to 9.00 | 6.60 to 7.30
6 | CC(C)(C)S(=O)(=O)c1cn2c(-c3cc(Cl)c(N)nc3F)cnc2cc1NCCO [Example 256, 2-((3-(6-amino-5-chloro-2-fluoropyridin-3-yl)-6-(tert-butylsulfonyl)imidazo [1,2-a]pyridin-7-yl)amino)ethan-1-ol] | > 80% | > 9.00 | 8.60 to 9.00 | > 7.30
7 | CC(C)(C)S(=O)(=O)c1cn2c(-c3cc(Cl)c(N)nc3F)cnc2cc1CCCO [Example 257, 3-(3-(6-amino-5-chloro-2-fluoropyridin-3-yl)-6-(tert-butylsulfonyl)imidazo [1,2-a]pyridin-7-yl)propan-1-ol] | > 80% | 7.70 to 8.60 | 7.70 to 8.60 | 6.00 to 6.60
8 | C[C@H](CO)Oc1cc2ncc(-c3cc(Cl)c(N)nc3F)n2cc1S(=O)(=O)C(C)(C)C [Example 258, (R)-2-((3-(6-amino-5-chloro-2-fluoropyridin-3-yl)-6-(tert-butylsulfonyl)imidazo [1,2-a]pyridin-7-yl)oxy)propan-1-ol] | > 80% | 7.70 to 8.60 | 7.70 to 8.60 | 6.00 to 6.60
9 | C[C@@H](O)COc1cn2ncc(-c3cc(F)c(N)nc3F)c2cc1S(=O)(=O)C(C)(C)C [Example 259, (R)-1-((3-(6-amino-2,5-difluoropyridin-3-yl)-5-(tert-butylsulfonyl)pyrazolo [1,5-a]pyridin-6-yl)oxy)propan-2-ol] | > 80% | 8.60 to 9.00 | 7.70 to 8.60 | 6.60 to 7.30
10 | COc1cc2ncc(-c3cc(F)c(OC)c(NS(=O)(=O)c4cnn(C)c4)c3)n2cc1C1(F)CCNCC1 [Example 276, N-(3-fluoro-5-(6-(4-fluoropiperidin-4-yl)-7-methoxyimidazo[1,2-a]pyridin-3-yl)-2-methoxyphenyl)-1-methyl-1H-pyrazole-4-sulfonamide] | > 80% | > 9.00 | 8.60 to 9.00 | 6.60 to 7.30
11 | CC(C)(C)S(=O)(=O)c1cn2c(-c3cnc4[nH]ccc4n3)cnc2cc1OCCO [Example 277, 2-((6-(tert-butylsulfonyl)-3-(5H-pyrrolo[2,3-b]pyrazin-2-yl)imidazo[1,2-a]pyridin-7-yl)oxy)ethan-1-ol] | < 30% | < 7.70 | 7.70 to 8.60 | 6.00 to 6.60
12 | CC(C)(C)S(=O)(=O)c1cn2c(-c3ccc4[nH]ccc4n3)cnc2cc1OCCO [Example 278, 2-((6-(tert-butylsulfonyl)-3-(1H-pyrrolo[3,2-b]pyridin-5-yl)imidazo[1,2-a]pyridin-7-yl)oxy)ethan-1-ol] | 30 to 55% | 7.70 to 8.60 | < 7.70 | < 6.00
13 | COc1cc2ncc(-c3cc(F)c(OC)c(NS(=O)(=O)c4cn(C)nc4C)c3)n2cc1S(=O)(=O)C(C)(C)C [Example 279, N-(5-(6-(tert-butylsulfonyl)-7-methoxyimidazo[1,2-a]pyridin-3-yl)-3-fluoro-2-methoxyphenyl)-1,3-dimethyl-1H-pyrazole-4-sulfonamide] | > 80% | > 9.00 | > 9.00 | > 7.30
14 | COc1cc2ncc(-c3cc(F)c(OC)c(NS(=O)(=O)c4cnn(C)c4C)c3)n2cc1S(=O)(=O)C(C)(C)C [Example 280, N-(5-(6-(tert-butylsulfonyl)-7-methoxyimidazo[1,2-a]pyridin-3-yl)-3-fluoro-2-methoxyphenyl)-1,5-dimethyl-1H-pyrazole-4-sulfonamide] | > 80% | 8.60 to 9.00 | 8.60 to 9.00 | 6.60 to 7.30
15 | COc1cc2ncc(-c3cc(F)c(OC)c(NS(=O)(=O)c4ccccc4)c3)n2cc1S(=O)(=O)C(C)(C)C [Example 281, N-(5-(6-(tert-butylsulfonyl)-7-methoxyimidazo[1,2-a]pyridin-3-yl)-3-fluoro-2-methoxyphenyl)benzenes ulfonamide] | > 80% | > 9.00 | > 9.00 | > 7.30
16 | COc1cc2ncc(-c3cc(F)c(OC)c(NC(=O)c4cnn(C)c4)c3)n2cc1S(=O)(=O)C(C)(C)C [Example 296, N-(5-(6-(tert-butylsulfonyl)-7-methoxyimidazo[1,2-a]pyridin-3-yl)-3-fluoro-2-methoxyphenyl)-1-methyl-1H-pyrazole-4-carboxamide] | > 80% | < 7.70 | < 7.70 | < 6.00
17 | COc1cc2ncc(-c3cc(F)c(OC)c(NC(=O)Cc4cnn(C)c4)c3)n2cc1S(=O)(=O)C(C)(C)C [Example 297, N-(5-(6-(tert-butylsulfonyl)-7-methoxyimidazo[1,2-a]pyridin-3-yl)-3-fluoro-2-methoxyphenyl)-2-(1-methyl-1H-pyrazol-4-yl)acetamide] | > 80% | 8.60 to 9.00 | 8.60 to 9.00 | 6.60 to 7.30
18 | COc1cc2ncc(-c3cc(F)c(OC)c(NC(=O)Cc4ccn(C)n4)c3)n2cc1S(=O)(=O)C(C)(C)C [Example 298, N-(5-(6-(tert-butylsulfonyl)-7-methoxyimidazo[1,2-a]pyridin-3-yl)-3-fluoro-2-methoxyphenyl)-2-(1-methyl-1H-pyrazol-3-yl)acetamide] | 55 to 80% | 7.70 to 8.60 | 7.70 to 8.60 | 6.00 to 6.60
19 | CC(C)(C)S(=O)(=O)c1cn2c(-c3cc(Cl)c(N)nc3F)cnc2cc1OCC(=O)O [Example 299, 2-((3-(6-amino-5-chloro-2-fluoropyridin-3-yl)-6-(tert-butylsulfonyl)imidazo[1,2-a]pyridin-7-yl)oxy)acetic acid] | > 80% | < 7.70 | < 7.70 | < 6.00
20 | COc1cc2ncc(-c3cc(F)c(OC)c(NS(=O)(=O)c4cnn(CCO)c4)c3)n2cc1C(F)(F)F [Example 304, N-(3-fluoro-2-methoxy-5-(7-methoxy-6-(trifluoromethyl)imidazo[1,2-a]pyridin-3-yl)phenyl)-1-(2-hydroxyethyl)-1H-pyrazole-4-sulfonamide] | > 80% | 7.70 to 8.60 | 7.70 to 8.60 | < 6.00
